Five molecules from patent US4880807A, “Nicotinoylpiperazines useful for treatment of convulsions” (Institut De Recherches Chimiques et Biologiques Appliquees …, priority 1987, dated 1989) can be followed below.

SMILES strings stand for the structures.

The subject of series [1] is convulsions induced by pentetrazole. The series can be described thus: animal or person. Particulars: for Therapeutic index PTZ (LD50/ED50): LD50 per os/ED50 per os, PTZ convulsions. The text has this: (§1) The anticonvulsant properties were investigated on male mice, thirty minutes after the oral administration of the substances to be studied, by the induction of convulsive seizures.

Series [2] concerns male mice. The series can be described thus: oral toxicity in mice (LD50, mortality over 14 days). The following applies: male mice. The procedure: (§2) The toxicity of the products to be studied was investigated by the oral administration, using an esophageal tube, of each of the said products to male mice with a body weight of 18 to 22 g, divided into groups each containing 10 to 20 animals. The mortality was recorded over a 14-day period.

Series [3] concerns convulsions induced by supra maximal electroshock (MCE). The series can be described thus: animal or person. The following applies: for Therapeutic index MCE (LD50/ED50): LD50 per os/ED50 per os, MCE convulsions. The method, then: as §1
These seizures are caused either by the intraperitoneal injection of pentetrazole (125 mg/kg) or by electrical stimulation of the cornea (supra maximal electroshock, abbreviated to MCE).

In series [4] the test system is male mice. Kind of series: in vivo. Type of series: in vivo. Particulars: for Protection index MCE (TD50/ED50) / Protection index PTZ (TD50/ED50): TD50 per os/ED50 per os; for Protection index MCE (TD50/ED50): MCE convulsions; for Protection index PTZ (TD50/ED50): PTZ convulsions; for TD50 (50% neurotoxic dose): per os, male mice, Rota-rod 30 min after administration, dose causing 50% of animals to fall, 30 min. An excerpt: (§3) The animals (divided into groups each containing ten male mice per dose and per product) are installed on the rod and their fall is observed over the next two minutes.

The nature of series [5]: oral toxicity in mice (LD50, mortality over 14 days). The following applies: mouse, in vivo, po. The procedure: as §2
Series [6] in a line: in vivo. Type of series: in vivo. Particulars: mouse, in vivo, po; per os, male mice, Rota-rod 30 min after administration; dose causing 50% of animals to fall; read-out: TD50 (50% neurotoxic dose).
From the text: as §3
In general terms: In the rotarod test animals must keep their balance on a rotating rod.

The mark [7] stands for this setting: oral (esophageal tube), groups of 10 to 20, 14 days, Table II.
[8] abbreviates: per os, repeated in Table IV, 20160 min.

In the case of `Cc1cc(Cl)ccc1N1CCN(C(=O)c2cccnc2)CC1` [Ex. 23, 4-(4-chloro-2-methylphenyl)-1-nicotinoylpiperazine], the “Therapeutic index PTZ (LD50/ED50)” value in series [1] is above 8.1. Also, in series [1] (po, 0.5 h), the “ED50 in respect of convulsions induced by PTZ” value (shortened to “ED50 … by PTZ”) is given as 124 mg/kg. The LD50 in series [2] (setting [7]) is reported as above 1000 mg/kg. For the same molecule, in series [2] (setting [8]), the LD50 was above 1000 mg/kg. In addition, in series [3], the “Therapeutic index MCE (LD50/ED50)” value is below 5.0. For the same molecule, the “ED50 in respect of convulsions induced by MCE” value (from here on “ED50 … by MCE”) in series [3] (po, 0.5 h) was above 200 mg/kg. In series [4], the “Protection index MCE (TD50/ED50)” value came out at 4.5, the “Protection index PTZ (TD50/ED50)” value is 7.4 and the “TD50 (50% neurotoxic dose)” value was found to be 650 mg/kg.
As for `O=C(c1cccnc1)N1CCN(c2ccccc2F)CC1` [Ex. 9], the “ED50 … by PTZ” value in series [1] (po, 0.5 h) is above 200 mg/kg. This molecule showed an LD50 in series [2] (setting [7]) above 1000 mg/kg. The “ED50 … by MCE” value in series [3] (po, 0.5 h) is listed as above 200 mg/kg.
Regarding `CCCC(CCC)C(=O)[O-].[Na+]` [VALP, sodium valproate, reference compound], the “Therapeutic index PTZ (LD50/ED50)” value in series [1] worked out at 4.0. In addition, the ED50 in series [1] (Mus musculus, po, 0.5 h, read-out: ED50 in respect of convulsions induced by PTZ) came out at 244 mg/kg. Besides, the LD50 at 336 h in series [5] came to 977 mg/kg. In series [2] (setting [8]), the LD50 came out at 977 mg/kg. Besides, in series [3], the “Therapeutic index MCE (LD50/ED50)” value was 4.0. Besides, in series [3] (Mus musculus, po, 0.5 h, read-out: ED50 in respect of convulsions induced by MCE), the ED50 turned out to be 242 mg/kg. Moreover, the TD50 at 0.5 h in series [6] came out at 670 mg/kg. Further, in series [4], the “Protection index MCE (TD50/ED50)” value worked out at 2.8 and the “Protection index PTZ (TD50/ED50)” value came out at 2.7.
As to `COc1ccc(N2CCN(C(=O)c3cccnc3)CC2)cc1` [Ex. 17], in series [1] (po, 0.5 h), the “ED50 … by PTZ” value turned out to be 200 mg/kg. The molecule also came in with an LD50 in series [2] (setting [7]) above 1000 mg/kg. Further, in series [3] (po, 0.5 h), the “ED50 … by MCE” value is above 200 mg/kg.
As for `Cc1ccc(Cl)cc1N1CCN(C(=O)c2cccnc2)CC1` [Ex. 25, 4-(5-chloro-2-methylphenyl)-1-nicotinoylpiperazine], the “Therapeutic index PTZ (LD50/ED50)” value in series [1] is recorded as above 12.7. Moreover, the “ED50 … by PTZ” value in series [1] (po, 0.5 h) is 79 mg/kg. The molecule also showed a 50% lethal dose (LD50) in series [2] (setting [7]) above 1000 mg/kg. The same molecule showed a 50% lethal dose (LD50) in series [2] (setting [8]) above 1000 mg/kg. In addition, the “Therapeutic index MCE (LD50/ED50)” value in series [3] is given as above 11.5. Besides, the “ED50 … by MCE” value in series [3] (po, 0.5 h) is 87 mg/kg. For the same molecule, in series [4], the “Protection index MCE (TD50/ED50)” value is on record as 4.1, the “Protection index PTZ (TD50/ED50)” value is 4.5 and the “TD50 (50% neurotoxic dose)” value is given as 355 mg/kg.

For orientation: LD50 means the dose at which mortality reaches 50%. Read a high LD50 as a less toxic substance. A word on the ED50: it is the dose that gives a 50% effect, or the effect in half of the subjects. Broadly, the TD50 is the dose at which the toxic effect under study appears in half of the subjects.
